According to BigSolDB 2.1:

C=C1CC[C@H](O)C/C1=C/C=C1\CCC[C@]2(C)[C@@H]([C@H](C)CCCC(C)C)CC[C@@H]12
solubility (mole fraction)
Conditions	in acetone	in acetonitrile	in ethanol	in ethyl acetate	in methanol	in n-propanol
248.2 K	0.00611	7.61e-05	0.0532	0.0219	0.00204	0.0647
253.2 K	0.00805	9.25e-05	0.0646	0.0287	0.00249	0.0873
258.2 K	0.0106	0.000133	0.0796	0.0366	0.00337	0.111
263.2 K	0.0143	0.00016	0.0965	0.0478	0.0046	0.136
268.2 K	0.0192	0.000252	0.116	0.0639	0.00625	0.163
273.2 K	0.028	0.000311	0.14	0.0883	0.00993	0.193
